Reference: ChEMBL document CHEMBL1121977, “alpha 2 adrenoceptors: classification, localization, mechanisms, and targets for drugs” (J Med Chem, 1982)

Each compound was assayed against T1, Adrenergic receptor alpha-2 (Rattus norvegicus, UniProt P22086+P19328+P22909) (assay: Displacement of [3H]clonidine from Alpha-2 adrenergic receptor of rat brain membranes).
T1 sequence (P22086 whole entry): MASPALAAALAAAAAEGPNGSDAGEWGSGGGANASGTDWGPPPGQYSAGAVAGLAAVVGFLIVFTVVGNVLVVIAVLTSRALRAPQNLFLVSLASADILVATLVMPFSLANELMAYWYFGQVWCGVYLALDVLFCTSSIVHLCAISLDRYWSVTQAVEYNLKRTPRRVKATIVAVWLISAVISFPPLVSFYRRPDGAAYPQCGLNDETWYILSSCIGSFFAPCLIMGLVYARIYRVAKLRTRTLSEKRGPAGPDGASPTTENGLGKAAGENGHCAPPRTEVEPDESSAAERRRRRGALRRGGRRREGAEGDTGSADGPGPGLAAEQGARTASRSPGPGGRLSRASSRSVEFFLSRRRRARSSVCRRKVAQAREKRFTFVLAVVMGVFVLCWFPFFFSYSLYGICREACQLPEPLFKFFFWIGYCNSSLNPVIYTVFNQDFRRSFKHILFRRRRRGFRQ
T1 sequence (P19328 whole entry): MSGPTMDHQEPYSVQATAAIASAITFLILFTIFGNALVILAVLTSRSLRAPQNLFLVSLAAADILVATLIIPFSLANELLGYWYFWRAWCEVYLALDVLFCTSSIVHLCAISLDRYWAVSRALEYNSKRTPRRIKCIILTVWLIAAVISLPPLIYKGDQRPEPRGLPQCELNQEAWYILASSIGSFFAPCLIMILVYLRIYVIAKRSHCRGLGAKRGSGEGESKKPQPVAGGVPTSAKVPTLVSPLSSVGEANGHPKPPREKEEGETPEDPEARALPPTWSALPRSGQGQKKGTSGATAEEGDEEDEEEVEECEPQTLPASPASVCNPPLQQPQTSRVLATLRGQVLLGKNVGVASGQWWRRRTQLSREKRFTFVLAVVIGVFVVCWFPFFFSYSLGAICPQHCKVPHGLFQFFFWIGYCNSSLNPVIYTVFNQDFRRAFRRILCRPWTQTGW
T1 sequence (P22909 whole entry): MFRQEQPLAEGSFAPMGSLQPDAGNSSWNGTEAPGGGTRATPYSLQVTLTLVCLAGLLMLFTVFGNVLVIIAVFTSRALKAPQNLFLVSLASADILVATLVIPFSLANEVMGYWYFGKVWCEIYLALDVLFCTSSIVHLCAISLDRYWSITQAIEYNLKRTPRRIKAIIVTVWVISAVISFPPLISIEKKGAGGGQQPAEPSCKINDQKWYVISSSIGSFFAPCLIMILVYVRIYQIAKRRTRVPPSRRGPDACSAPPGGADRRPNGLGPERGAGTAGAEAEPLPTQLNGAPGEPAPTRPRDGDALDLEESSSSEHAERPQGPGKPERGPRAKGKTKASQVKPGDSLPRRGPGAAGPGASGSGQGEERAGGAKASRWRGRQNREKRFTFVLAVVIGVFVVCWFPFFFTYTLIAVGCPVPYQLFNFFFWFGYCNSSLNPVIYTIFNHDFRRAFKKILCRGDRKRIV
Format: cell membranes, Membrane

SMILES | Ki
C[C@H](N)[C@H](O)c1ccc(O)c(O)c1 [LEVONORDEFRIN] | 7.7 nM
c1ccc(CC2=NCCN2)cc1 [TOLAZOLINE] | 180 nM
COc1cccc(OC)c1OCCNCC1COc2ccccc2O1 (centres undefined) | 200 nM
c1cc2c(c(NC3=NCCN3)c1)CCCC2 [TRAMAZOLINE] | 4.2 nM
